Laboratory results: patent US20160274087A1, “SCREENING ASSAY FOR AGENTS THAT INFLUENCE BETA CELL NUMBER AND/OR PHENOTYPE” (VRIJE UNIVERSITEIT BRUSSEL, priority 2013, published 2016)

Experiments:
alloxan-diabetic mice = assay: Implantation of in vitro expanded beta cells in alloxan-diabetic mice; assay type: in vivo
Experimental: FIG. 8. Alloxan-induced diabetes in mice can be reversed with implantation of in vitro-generated beta cells. Sorted beta cells were cultured in control medium or in the presence of HC up to day 9 and then switched to basal condition for the last six days of culture. IPGTT was used to determine glucose clearance rate. Glucose was administered (3 g/kg body weight) by in intraperitoneal injection into a 2 h-fasted animals and blood glucose levels were measured at the indicated time points during the following 120-min. Data are from animals transplanted with control cells (black triangles; n=3), in vitro expanded cells (black squares; n=5) and normal control animals (inverted triangles; n=2).
In this respect was it relevant to adjust culture conditions so that the expanded beta cell mass was not degranulated. We compared the in vivo function and hormone reserve of implants that were formed by equal numbers of beta cells collected from either control or HC-treated preparations, HC being withdrawn for the last 6 days (as in Table 7). At the end of 15 days culture, cell yield after HC was 54 to 110 percent higher than in control (paired cultures from three different islet isolation experiments), thus allowing preparation of more grafts per experiment. Respective grafts contained a similar number of beta cells and a similar total hormone content (for the three experiments between 10 to 15 μg insulin per graft). […] Both also presented an equally rapid normalization of glycemia following an intraperitoneal glucose load with similar kinetics to normal control animals (FIG. 8).

rat beta cells [1] = assay: Cellular insulin content, insulin release and glucose-stimulated insulin secretion of cultured beta cells; assay type: cell-based; conditions: for Insulin Content Day 15: HC
Experimental: (§1) Beta cells were FACS-purified from islet-cell enriched suspensions (Pipeleers et al., 1985) prepared from neonatal (2-3 days-old) and adolescent or adult (8 or 40-week-old, male) Wistar rats (Janvier Bioservices, France); their purity was, respectively 70-75% and over 90%. Sorted cells were counted in a hemocytometer, seeded (day 0) and cultured for up to 15 days in serum-free Ham's-F10 medium at 5, 10 or 20 mmol/l glucose, supplemented with 2 mmol/l L-glutamine, 50 μM 3-isobutyl-1-methylxanthine, 0.5% Albumax-I, penicillin (100 U/ml) and streptomycin (0.1 mg/ml). The 10 mmol/l glucose condition is known to maintain beta cell survival over 9-days (Ling et al., 1994; Ling and Pipeleers, 1994). Medium and cells were retrieved after selected culture periods and assayed for insulin content; data were expressed as a function of the number of living beta cells that was determined in parallel wells.

rat beta cells [2] = assay: Beta cell viability / cell death (propidium iodide assay); assay type: cell-based; conditions: LOPAC screen at 1 μM; adult rat beta cells; day 6; control medium 97
Description: Numbers of living beta cells were obtained by subtracting the PI-positive cell numbers from the Ho-positive cell numbers, and correcting for the percent insulin-negative cells, as determined following insulin-immunofluorescence staining. They were expressed as percent of the numbers on day 1. […] To detect beta cells that underwent two successive cycles, cells were sequentially exposed to two different thymidine-analogs, first EdU from day 3 to 6, and then BrdU (100 μmol/l) from day 7 to 10, with a 24-hour label-free period in between. EdU-positive (EdU^+) nuclei were detected with the Click-iT Assay kit (Invitrogen), while BrdU-positive (BrdU^+) nuclei were identified with anti-BrdU antibody.
(§2) Absolute number of cells was determined by whole-well imaging using the BD-PathwayBioimager855 (BD-Biosciences). IPLab and AttoVision software packages (BD-Biosciences) were used for image background subtraction, segmentation and quantification.
Freshly purified beta cells were cultured in control medium for 24 h prior to the addition of the LOPAC test compounds (day 1). The culture medium was refreshed on day 3 and the cells were then cultured further with 5-ethynyl-2′-deoxyuridine (EdU; 10 μM) up to day 6. […] Thus, a compound is considered a hit only if it increases the percent EdU incorporation to above three standard deviation of the plate-averaged percent EdU incorporation.

rat beta cells [3] = assay: Number of living beta cells in culture (Hoechst 33342/propidium iodide whole-well imaging counts; expansion assay); assay type: cell-based
Experimental: as §1
On day 1, 9 and 15 of culture, total numbers of living beta cells per well were determined by semi-automatic cell count, after Hoechst 33342 (Ho) and propidium iodide (PI) staining. Numbers of living beta cells were obtained by subtracting the PI-positive cell numbers from the Ho-positive cell numbers, and correcting for the percent insulin-negative cells, as determined following insulin-immunofluorescence staining. They were expressed as percent of the numbers on day 1. Each condition was also evaluated for increases in the percentage of proliferating beta cells (incorporating the thymidine-analogue 5-ethynyl-2′-deoxyuridine, EdU; 100 μmol/l). To detect beta cells that underwent two successive cycles, cells were sequentially exposed to two different thymidine-analogs, first EdU from day 3 to 6, and then BrdU (100 μmol/l) from day 7 to 10, with a 24-hour label-free period in between. EdU-positive (EdU^+) nuclei were detected with the Click-iT Assay kit (Invitrogen), while BrdU-positive (BrdU^+) nuclei were identified with anti-BrdU antibody.
as §2
Experimental procedures for isolation of beta cells from neonatal (2-3 days old) and adult (8 or 40 week old, male) Wistar rats (Janvier Bioservices, France) and analysis of their number, viability and proliferation activity in culture have been described before (Assefa et al., 2014). Sorted beta cells were seeded in 804G matrix-coated plates (designated as day 0) and the numbers and viability of seeded cells at the start of all experiments were determined on day 1 (24 h after seeding). The cells were cultured in control medium, which is a serum-free Ham's F10 medium supplemented with 2 mM L-glutamine, 50 μM 3-isobutyl-1-methylxanthine, 0.5% Albumax I, penicillin (100 U/ml), streptomycin (0.1 mg/ml) and, unless indicated otherwise, 10 mM glucose.
Sorted beta cells were seeded in 384-well or 6-well plates coated with 804G matrix, and kept in culture for up to 15 days at 37° C. 5% CO2 using Ham F10 supplemented with 1 mM L-glutamine, 0.1 mg/ml streptomycin, 0.075 mg/ml penicillin, 50 μM of isobutyl-1-methylxanthine (IBMX) at 10 mM D-glucose with and without synthetic GCs (6 methyl-prednisolone (6MP), dexamethasone (DEX), GR-modulators (compound A (CPA), mifepristone (MIF), and NFκB inhibitors (JSH-23 en Bay11-7085). Total cell number and beta cell viability was evaluated after incubation with Hoechst 33342 and propidium iodide. All chemicals were from Sigma Life Sciences or Merck. Quantification of cell numbers and analysis of beta-cell viability was done using the Pathway Bioimager (BD Biosciences) and using IPlab and Attovision software for background subtraction as described prior (Assefa et al., 2014).

Structure (SMILES): C[C@]12CCC(=O)C=C1CC[C@@H]1[C@@H]2[C@@H](O)C[C@@]2(C)[C@H]1CC[C@]2(O)C(=O)CO [Hydrocortisone, hydrocortisone]
- circulating C-peptide level at week 1 post-transplantation (alloxan-diabetic mice; HC group grafts, control 2.3±0.2): 2.4 ± 0.2 nM
- circulating C-peptide level at week 5 post-transplantation (alloxan-diabetic mice; HC group grafts, control 2.6±0.2): 2.6 ± 0.4 nM
- Insulin Content, Pancreas (alloxan-diabetic mice; animals transplanted with cells from proliferation condition (HC up to day 9, then control medium)): 0.7 ± 0.2 μg/sample
- Insulin Content, Graft (alloxan-diabetic mice; animals transplanted with cells from proliferation condition (HC up to day 9, then control medium), post-transplantation week 4): 7.2 ± 1.3 μg/sample
- correction of hyperglycemia after implantation (alloxan-diabetic mice; grafts of HC-treated beta cells in abdominal fat pad): corrected hyperglycemia within one week
- Insulin Content Day 15 (rat beta cells [1]; 9 days, 6 days, control): 33.1 ± 2.9 ng/10^3 cells
- Insulin Content Day 15 (rat beta cells [1]; 15 days, control 35.3 ± 3.6): 9.3 ± 0.7 ng/10^3 cells
- Insulin Content Day 9 (rat beta cells [1]; continuous HC, control 23.7 ± 0.9): 14.0 ± 1.4 ng/10^3 cells
- loss of insulin content on day 9 (rat beta cells [1]; continuous incubation with HC): 56%
- loss of insulin content on day 15 (rat beta cells [1]; continuous incubation with HC): more than 70%
- Percent viable cells (rat beta cells [2]): 97%
- Number of Living Cells on Day 15 (% of Day 1) (rat beta cells [3]; 9 days, HC, 6 days, control): 168.1 ± 6.8 % of Day 1
- Number of Living Cells on Day 15 (% of Day 1) (rat beta cells [3]; 15 days, HC (Table 7), control 102.5 ± 6.1): 173.9 ± 7.1 % of Day 1
- Number of Living Cells on Day 15 (% of Day 1) (rat beta cells [3]; HC alone, 15 days (Table 6)): 156 ± 4 % of Day 1
- Number of Living Cells on Day 15 (% of Day 1) (rat beta cells [3]; HC, glucose 7.5 high-responsive cells, control 99.0 ± 1.5): 182.0 ± 4.9 % of Day 1
- Number of Living Cells on Day 15 (% of Day 1) (rat beta cells [3]; HC, glucose 7.5 low-responsive cells, control 94.0 ± 9.2): 117.3 ± 5.2 % of Day 1
- Number of Living Cells on Day 15 (% of Day 1) (rat beta cells [3]; HC, mixed beta cell population, control 110.7 ± 5.0): 169.0 ± 9.3 % of Day 1
- increase in absolute number of living beta cells in culture (rat beta cells [3]; two-weeks culture): near population doubling
